For assay [1], the system named is Mycobacterium tuberculosis. Briefly: microbe, parasite or virus in culture. To be noted: 168 h.
For assay [2], the system named is Mycobacterium tuberculosis. The assay is described as follows: microbe, parasite or virus in culture. As to conditions: 168 h. This is another data set of the same source.

In brackets after ≈: the same amount, converted by molar mass. Some results are limits rather than exact numbers.

As for `O=[N+]([O-])c1ccc(CN2CCN(c3ccc(F)cc3)CC2)o1`, the MIC90 in assay [1] amounted to 6.55 µM (≈ 2 µg/mL).
As to `O=[N+]([O-])c1ccc(CN2CCN(c3ccc(Cl)cc3)CC2)o1`, the MIC90 in assay [2] amounted to 0.029 µM (≈ 0.00933 µg/mL); in assay [1], 0.072 µM (≈ 0.0232 µg/mL).
`Cc1cccc(N2CCN(Cc3ccc([N+](=O)[O-])o3)CC2)c1C`: in assay [1], the MIC90 was determined as 25.3 µM (≈ 7.98 µg/mL).
On the same count and under the same terms, the value for `O=[N+]([O-])c1ccc(CN2CCN(c3ccccc3)CC2)o1` was 13.9 µM (≈ 4 µg/mL).
Regarding `O=[N+]([O-])c1ccc(CN2CCN(S(=O)(=O)c3ccccc3)CC2)o1`, the MIC90 in assay [2] is above 22.7 µM; in assay [1], 2.13 µM (≈ 0.748 µg/mL).
`COc1cccc(N2CCN(Cc3ccc([N+](=O)[O-])o3)CC2)c1`: the figures for the MIC90 in assay [2] and in assay [1] were 0.09 µM (≈ 0.0286 µg/mL) and 0.37 µM (≈ 0.117 µg/mL), respectively.
On to `O=[N+]([O-])c1ccc(CN2CCN(S(=O)(=O)c3ccc(F)cc3)CC2)o1`, for which the MIC90 is 1 µM (≈ 0.369 µg/mL) in assay [2] and 1.35 µM (≈ 0.499 µg/mL) in assay [1].
For the compound `Cc1ccc(S(=O)(=O)N2CCN(Cc3ccc([N+](=O)[O-])o3)CC2)cc1`, the MIC90 in assay [2] was 14.6 µM (≈ 5.33 µg/mL); in assay [1], 0.68 µM (≈ 0.248 µg/mL).
For `O=[N+]([O-])c1ccc(CN2CCN(c3cccc(Cl)c3)CC2)o1`, in assay [1], the MIC90 amounted to 0.37 µM (≈ 0.119 µg/mL).
Regarding `O=[N+]([O-])c1ccc(CN2CCN(c3ccc(N4CCOCC4)cc3)CC2)o1`, the MIC90 in assay [2] and in assay [1] was 0.08 µM (≈ 0.0298 µg/mL) each time.
In the case of `CC(C)(C)c1ccc(N2CCN(Cc3ccc([N+](=O)[O-])o3)CC2)cc1`, the MIC90 in assay [2] is above 25.2 µM; in assay [1] it was 1.32 µM (≈ 0.453 µg/mL).
Compound `O=[N+]([O-])c1ccc(CN2CCN(c3ccccc3F)CC2)o1` yielded an MIC90 in assay [1] of 13.1 µM (≈ 4 µg/mL).
Same read-out and setting: to `O=[N+]([O-])c1ccc(CN2CCN(c3cccc(C(F)(F)F)c3)CC2)o1` belongs 5.63 µM (≈ 2 µg/mL).
On to `O=[N+]([O-])c1ccc(S(=O)(=O)N2CCN(Cc3ccc([N+](=O)[O-])o3)CC2)cc1`, for which the MIC90 in assay [2] was determined as 4.19 µM (≈ 1.66 µg/mL); in assay [1] it was 0.63 µM (≈ 0.25 µg/mL).
Turning to `N#Cc1cccc(N2CCN(Cc3ccc([N+](=O)[O-])o3)CC2)c1`, the MIC90 is 0.06 µM (≈ 0.0187 µg/mL) in assay [2] and 0.19 µM (≈ 0.0593 µg/mL) in assay [1].
Consider `CC(C)(C)OC(=O)N1CCN(Cc2ccc([N+](=O)[O-])o2)CC1`, for which the MIC90 in assay [2] turned out to be 0.12 µM (≈ 0.0374 µg/mL); in assay [1], 0.32 µM (≈ 0.0996 µg/mL).
Regarding `COc1c(N2CCNC(C)C2)c(F)cc2c(=O)c(C(=O)O)cn(C3CC3)c12` (stereo not given) [GATIFLOXACIN], the MIC90 in assay [2] amounted to 1.33 µM (≈ 0.499 µg/mL); in assay [1], 2.66 µM (≈ 0.999 µg/mL).
For `CO[C@H]1/C=C/O[C@@]2(C)Oc3c(C)c(O)c4c(O)c(c(/C=N/N5CCN(C)CC5)c(O)c4c3C2=O)NC(=O)/C(C)=C\C=C\[C@H](C)[C@H](O)[C@@H](C)[C@@H](O)[C@@H](C)[C@H](OC(C)=O)[C@@H]1C` [RIFAMPIN], the MIC90 in assay [2] is 156 µM (≈ 128 µg/mL); in assay [1], 311 µM (≈ 256 µg/mL).

Values taken from ChEMBL document CHEMBL3739354, “Nitrofuranyl Methyl Piperazines as New Anti-TB Agents: Identification, Validation, Medicinal Chemistry, and PK Studies” (ACS Med Chem Lett, 2015).
